The values below are quoted from earlier work in publication PMC3649970, “A Unique Spumavirus Gag N-terminal Domain with Functional Properties of Orthoretroviral Matrix and Capsid” (PLoS Pathogens, 2013).

For this data set, the system named is equivalent Gag-NtD (FFV). The conditions noted are these: FFV Env leader peptide with FFV Gag-NtD; ref [29]; cited from earlier work. The source says: In the structure, residues 7–16 of the Env leader peptide comprise the amphipathic α-helix bound in the Env binding site of the Gag-NtD and residues 1–6 provide intramolecular hydrogen bonding that stabilises the helical conformation. […] Therefore, the hydrophobic interface observed in the structure likely represents the complete interaction between the leader peptide and FV Gag. The apolar ch ...

“residues 1–30 of the FFV Env leader peptide: residues 1–30 of the FFV Env leader peptide (MEQEHVMTLKEWMEWNAHKQLQKLQSTHPE; leader peptide; UniProt O56861 1-30, looked up, fragment)”: the equilibrium association constant is 65000 M⁻¹.
